{
  "source": "patent US20060058504A1",
  "about": "“Peptides capable of inducing attraction to the axonal growth and their use for treating neurodegenerative diseases” (Centre National de la Recherche Scientific (CNRS), priority 2002, published 2006)",
  "key": {"[1]": {"tested_on": "cortical axons repelled by Sema3A secreted from the ventral spinal cord", "assay": "Co-culture of cortical slices and ventral spinal cord explants (axon guidance response to Sema3A)", "assay_type": "cell-based, mice", "description": "Blocks of cortex were dissected from P0 (postnatal day 0) to P2 mice and cut into 250 μm thick slices with a McIlwain tissue chopper. The ventral part of the cervical spinal cord was dissected and cut into 250 μm thick slices. Co-culture of cortical slices and ventral spinal cord explants were performed in a three-dimensional plasma clot, as described previously (Castellani et al., 2000). Cortical slices were oriented in the plasma clot as indicated in FIG. 1B to give to axons equivalent chances to be deflected away or towards the spinal cord explant. Purified wild-type or mutant L1Fc chimeras were added to the culture medium (3 μg/ml). Inhibitors of the guanylyl cyclase (ODQ, 10^−5 M, Sigma) and NOS (7NI, […], Sigma) were added to the culture medium, either alone or with wild-type L1Fc (3 μg/ml). After one or two days in vitro (DIV), the cultures were fixed with 4% paraformaldehyde (PFA) and analyzed by phase contrast microscopy (Axiovert 35-M, Zeiss). A qualitative guidance index was attributed to the co-cultures, to assess the degree of repulsive (negative values) or attractive (positive values) effects (Castellani et al., 2000). The index ranged from −2 (when most fibers grew away from the spinal cord explant) to +2 (when most fibers grew towards the explant), with intermediate situations (index of −1 and +1 for moderate guidance effects). An index of zero was attributed to the cultures showing no preferential growth. Quantitative analysis of axon length and number of axons growing from cortical slices was performed as described previously (Castellani et al., 2000). A proximal and a distal region, each of them covering a 600 μm-piece of cortical tissue were determined for each culture. All fibers extending from these two regions were counted and the length of the three longest fibers was measured, using computer analysis software (Visiolab 2000, Biocom). Immunofluorescence labeling of axons was performed using the mouse anti-phosphorylated neurofilament antibody SMI31 (Stemberger and Meyer Inc.), and Texas red-conjugated secondary anti-mouse antibody (see result obtained for number of axons and axonal length in the following tables 1 and 2).\nIt has been previously developed an assay system using explants of ventral spinal cord co-cultured with cortical axons in order to determine the factors involved in axonal repulsion and attraction (Castellani et al., 2000). Using this system we have shown that Sema3A secreted from the ventral spinal cord repels cortical axons. In the presence of soluble wild-type L1Fc chimeric protein however, repulsion is switched to attraction (Castellani et al., […]). In the present study, we aimed to identify the L1 interactions underlying the switching process. As Ig domains have been implicated in binding of Ig CAMs to many of their ligands (Brümmendorf and Rathjen, 1996) we hypothesized that they would also be required for L1 Fc-mediated switching. […] L1 Fc chimeras containing pathological missense mutations affecting specific Ig domains (De Angelis et al., 1999 and FIGS. 1A, 1B) were assessed for their ability to reverse Sema3A repulsion to attraction."}, "[2]": {"tested_on": "Sema3A-induced endocytosis in neonatal cortical cells", "assay": "Rhodamine-Dextran uptake in neonatal cortical cells", "assay_type": "cell-based", "conditions": "15 min, peptide 10^−5M", "description": "(§1) Neonatal cortical cells or COS7 cells transfected with expression vectors for L1 and NP-1 were incubated for 15 min with Rhodamine-Dextran (2 mg/ml) mixed to a solution of Sema3A-AP supernatant, Sema3A and peptide (10^−5M), peptide alone (10^−5M) or control supernatant. Cells were fixed with PFA 4% and processed for immunocytochemistry as described in the above sections. To detect intracellular proteins, cells were permeabilized with methanol for 2 min.\n(§2) Therefore it has been tested whether L1 mimetic peptide was able to block endocytosis. To visualize endocytosis we examined the uptake of Rhodamine-Dextran applied on live cortical cultures in various conditions. Cells were treated for 15 min with Rhodamine-Dextran together with Sema3A alone, Sema3A combined with the L1 mimetic peptide, peptide alone or untreated as control conditions. Strikingly, uptake of Rhodamine-Dextran was exclusively observed when cells were treated with Sema3A alone. Under this condition, spots of internalized fluorescence were observed along axon shafts and surrounding the cell bodies. […] To correlate this process with L1/NP-1 cis and trans interactions, the experiments of Rhodamine-Dextran uptake were performed on COS7 cells transfected to co-express L1 and NP-1 (FIG. 6B)."}, "[3]": {"tested_on": "Sema3A-induced endocytosis in COS7 cells co-expressing L1 and NP-1", "assay": "Rhodamine-Dextran uptake in COS7 cells co-expressing L1 and NP-1", "assay_type": "cell-based", "conditions": "15 min, peptide 10^−5M", "description": "as §1, §2"}, "[4]": {"tested_on": "Sema3A-induced co-internalization of L1 and NP-1", "assay": "Immunocytochemical detection of cell-surface L1 and NP-1", "assay_type": "cell-based", "conditions": "peptide 10^−5M", "description": "as §1\nIn parallel, cells submitted to the same treatments were processed for immunocytochemical detection of L1 and NP-1. […] Furthermore, in the Sema3A-treated cultures L1 and NP-1 immunoreactivities were detected after permeabilization, as co-localized cytoplasmic patches (FIGS. 7F-7H)."}, "L1/NP-1 complex": {"tested_on": "L1/NP-1 complex", "sequence (O14786 22-923)": "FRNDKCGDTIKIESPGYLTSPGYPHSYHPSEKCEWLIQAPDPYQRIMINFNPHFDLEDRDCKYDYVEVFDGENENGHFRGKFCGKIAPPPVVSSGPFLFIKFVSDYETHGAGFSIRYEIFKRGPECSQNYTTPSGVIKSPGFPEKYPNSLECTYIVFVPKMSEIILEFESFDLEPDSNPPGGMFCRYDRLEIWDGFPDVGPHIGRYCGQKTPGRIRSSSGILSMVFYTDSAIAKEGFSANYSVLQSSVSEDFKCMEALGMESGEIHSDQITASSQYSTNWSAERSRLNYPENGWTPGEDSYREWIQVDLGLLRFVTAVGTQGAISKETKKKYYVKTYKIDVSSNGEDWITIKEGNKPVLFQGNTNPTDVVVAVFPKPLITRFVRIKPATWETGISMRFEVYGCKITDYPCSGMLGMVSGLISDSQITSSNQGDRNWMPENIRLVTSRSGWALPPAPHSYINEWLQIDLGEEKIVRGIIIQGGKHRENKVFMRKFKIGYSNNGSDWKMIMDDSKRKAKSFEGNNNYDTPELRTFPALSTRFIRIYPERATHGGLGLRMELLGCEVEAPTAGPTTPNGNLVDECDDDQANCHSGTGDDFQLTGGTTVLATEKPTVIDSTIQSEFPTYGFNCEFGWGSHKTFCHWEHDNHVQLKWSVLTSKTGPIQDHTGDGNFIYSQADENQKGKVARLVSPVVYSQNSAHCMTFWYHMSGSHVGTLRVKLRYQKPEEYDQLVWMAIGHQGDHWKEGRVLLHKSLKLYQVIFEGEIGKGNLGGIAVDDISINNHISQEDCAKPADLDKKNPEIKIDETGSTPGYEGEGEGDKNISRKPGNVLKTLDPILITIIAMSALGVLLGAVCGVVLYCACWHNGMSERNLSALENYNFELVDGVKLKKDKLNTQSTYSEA", "sequence (P32004 20-1257 partner)": "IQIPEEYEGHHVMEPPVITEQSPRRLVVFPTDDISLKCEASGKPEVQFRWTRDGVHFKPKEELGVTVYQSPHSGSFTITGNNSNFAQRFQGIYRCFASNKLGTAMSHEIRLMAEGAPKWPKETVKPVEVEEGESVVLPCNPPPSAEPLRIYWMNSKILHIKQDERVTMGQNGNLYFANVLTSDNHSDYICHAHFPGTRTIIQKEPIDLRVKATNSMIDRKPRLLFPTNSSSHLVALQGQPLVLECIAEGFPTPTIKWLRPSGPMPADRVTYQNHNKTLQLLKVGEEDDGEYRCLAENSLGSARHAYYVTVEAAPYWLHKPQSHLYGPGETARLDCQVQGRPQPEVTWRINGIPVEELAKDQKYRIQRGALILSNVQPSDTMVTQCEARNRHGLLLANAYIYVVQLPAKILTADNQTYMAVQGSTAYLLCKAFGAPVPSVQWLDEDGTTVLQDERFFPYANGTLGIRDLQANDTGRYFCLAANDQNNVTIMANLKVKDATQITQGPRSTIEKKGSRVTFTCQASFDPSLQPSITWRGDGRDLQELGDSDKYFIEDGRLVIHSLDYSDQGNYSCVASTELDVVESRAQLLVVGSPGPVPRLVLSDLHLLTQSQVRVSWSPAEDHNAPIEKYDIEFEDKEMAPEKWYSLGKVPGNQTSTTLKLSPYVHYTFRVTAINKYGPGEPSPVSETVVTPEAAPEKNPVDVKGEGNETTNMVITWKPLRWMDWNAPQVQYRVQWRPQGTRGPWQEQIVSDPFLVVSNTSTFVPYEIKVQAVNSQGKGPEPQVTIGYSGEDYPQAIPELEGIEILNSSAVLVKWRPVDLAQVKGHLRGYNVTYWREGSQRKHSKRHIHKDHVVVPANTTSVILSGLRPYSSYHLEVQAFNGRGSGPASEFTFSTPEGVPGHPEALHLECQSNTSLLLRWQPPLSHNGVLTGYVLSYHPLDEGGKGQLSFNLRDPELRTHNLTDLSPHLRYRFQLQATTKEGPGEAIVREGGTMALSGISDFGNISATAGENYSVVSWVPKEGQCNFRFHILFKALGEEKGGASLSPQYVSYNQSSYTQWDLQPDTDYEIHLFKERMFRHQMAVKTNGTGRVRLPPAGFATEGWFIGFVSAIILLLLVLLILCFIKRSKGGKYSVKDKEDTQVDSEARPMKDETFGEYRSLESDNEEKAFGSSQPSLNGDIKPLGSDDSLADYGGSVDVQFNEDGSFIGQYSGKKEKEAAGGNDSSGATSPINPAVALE", "assay": "Co-immunoprecipitation of the L1/NP-1 complex in presence of peptide", "assay_type": "binding", "conditions": "Sema3A combined to the peptide", "description": "COS cells were transfected with various expression vectors coding for full-length HA-tagged NP-1, myc-tagged cyt-deleted NP-1, wild-type L1, and L1 mutant constructs (G121S, A426D, L120V) using a lipofection transfection method (lipofectamine). After 2 DIV, cells were lysed with immunoprecipitation buffer (IP buffer: Hepes 25 mM, EDTA 5 mM, MgCl2 1 mM, PMSF 2 mM, glycerol 10% and triton X100 1%, pH 7). The lysate was incubated at 4° C. for 30 min, centrifuged for 5 min and pre-cleared with protein A-Sepharose for 2 hrs at 4° C. Samples were immunoprecipitated with mouse anti-HA (3μl, clone 12CA5, Roche), rabbit anti-L1 antibodies (3 μl), mouse anti-myc antibodies (3 μl, 9E 10, Sigma) coupled to rabbit anti-mouse antibodies on protein A preformed complexes for 16 hrs at 4° C. The beads were washed, and the precipitates analyzed by immunoblot using anti-HA (1:1000) and anti-L1 (1:1000) antibodies.\nA possible molecular mechanism by which soluble L1 and its mimetic peptide could exert their modulatory effect on Sema3A signaling is that they compete with transmembrane L1 in the L1/NP-1 complex. To address this issue we examined in immunoprecipitation experiments the L1/NP-1 complex in conditions mimicking either a repulsive (Sema3A alone) or an attractive (Sema3A combined to the peptide) environment. […]"}},
  "note": "“Also recorded” adds a separate entry of the source.",
  "data": [
    {"substance": "FASNKL (Description of the Artificial sequence Derived from the human amino-acid sequence of L1 Ig1 domain) [FASNKL120, six amino-acid peptide from L1 Ig1 domain]", "values": [
      {"measurement": "switching of Sema3A repulsion to attraction by peptide", "setting": "[1]; peptide at 10^−5 and 10^−6M", "value": "switched Sema3A repulsion to attraction"},
      {"measurement": "conversion of Sema3A-induced chemorepulsion into attraction by peptide", "setting": "[1]; peptide at 10^−6M", "value": "successfully converted Sema3A-induced chemorepulsion into attraction"},
      {"measurement": "Rhodamine-Dextran uptake, Sema3A combined with peptide", "setting": "[2]; listed as L1 mimetic peptide", "value": "blocks Sema3A-induced endocytosis; also recorded: Internalization was blocked"},
      {"measurement": "Rhodamine-Dextran uptake, peptide alone", "setting": "[2]; listed as L1 mimetic peptide", "value": "no uptake of Rhodamine-Dextran could be detected; also recorded: Uptake of Rhodamine-Dextran was not detected"},
      {"measurement": "Rhodamine-Dextran uptake, Sema3A combined with peptide", "setting": "[2]; listed as peptide mimicking soluble L1", "value": "blocks Sema3A-induced endocytosis"},
      {"measurement": "Rhodamine-Dextran uptake, Sema3A combined with peptide", "setting": "[3]", "value": "This process was blocked"},
      {"measurement": "Rhodamine-Dextran uptake, peptide alone", "setting": "[3]", "value": "no endocytosis could be detected"},
      {"measurement": "Rhodamine-Dextran uptake, Sema3A combined with peptide", "setting": "[3]; listed as mimetic peptide", "value": "but not Sema3A combined with the mimetic peptide induced internalization"},
      {"measurement": "Rhodamine-Dextran uptake, peptide alone", "setting": "[3]; listed as mimetic peptide", "value": "No fluorescent labeling was detected"},
      {"measurement": "L1 and NP-1 cell surface expression, Sema3A combined with peptide", "setting": "[4]", "value": "the two proteins were detected; also recorded: blocked by the peptide; also recorded: detected on the cell membrane"},
      {"measurement": "L1 and NP-1 cell surface expression, peptide alone", "setting": "[4]", "value": "cell surface expression was observed"},
      {"measurement": "L1 and NP-1 cell surface expression, Sema3A combined with peptide", "setting": "[4]; listed as switching peptide", "value": "this process was blocked"},
      {"measurement": "L1 and NP-1 cell surface expression, peptide alone", "setting": "[4]; listed as switching peptide", "value": "the two proteins were detected"},
      {"measurement": "cis interaction between L1 and NP-1 in presence of the peptide", "setting": "L1/NP-1 complex", "value": "did not abrogate the cis interaction between L1 and NP-1"}
    ]}
  ]
}
